Assay [1] has as its target T1, human SGLT1 (Homo sapiens, UniProt P13866).
T1 construct: expressed in transfected cells
T1 sequence (P13866 1-664): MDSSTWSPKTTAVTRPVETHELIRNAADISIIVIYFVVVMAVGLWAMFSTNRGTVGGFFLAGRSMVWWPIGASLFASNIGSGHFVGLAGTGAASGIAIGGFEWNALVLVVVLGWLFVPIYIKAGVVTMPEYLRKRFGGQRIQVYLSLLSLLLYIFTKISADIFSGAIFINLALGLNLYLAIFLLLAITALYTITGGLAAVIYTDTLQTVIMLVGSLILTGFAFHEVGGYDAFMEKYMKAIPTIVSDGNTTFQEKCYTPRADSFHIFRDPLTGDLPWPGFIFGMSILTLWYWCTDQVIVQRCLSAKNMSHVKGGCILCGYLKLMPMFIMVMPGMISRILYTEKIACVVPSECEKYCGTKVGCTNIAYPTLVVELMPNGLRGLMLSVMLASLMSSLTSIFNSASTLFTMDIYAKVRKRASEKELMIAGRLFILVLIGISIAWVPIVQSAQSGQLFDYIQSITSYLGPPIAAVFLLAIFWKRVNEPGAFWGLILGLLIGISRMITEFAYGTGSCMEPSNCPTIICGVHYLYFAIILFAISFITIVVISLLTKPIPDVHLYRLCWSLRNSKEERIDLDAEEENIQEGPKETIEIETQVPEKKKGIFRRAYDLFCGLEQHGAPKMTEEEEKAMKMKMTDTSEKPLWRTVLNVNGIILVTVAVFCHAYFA
The experiment in a line: Assay for inhibitory effects on human SGLT1 activity (uptake of methyl-α-D-glucopyranoside in CS1-5-11D cells). As to conditions: CHO-K1 cells stably expressing human SGLT1 (CS1-5-11D); 1 mM α-MG uptake, 37° C., 1 hour. The class given is cell-based. Here is the method:
Assay for Inhibitory Effects on Human SGLT1 Activity
1) Cloning and Construction of the Vector Expressing Human SGLT1
The cDNA library was prepared for PCR amplification by reverse transcription from total RNA deprived from human small intestine (Ori gene) using oligo-dT as a primer.
2) Establishment of Cell Line Stably Expressing Human SGLT1
The expression vector of human SGLT1 was digested by Sca I into a linear DNA. The linear DNA was transfected into CHO-K1 cells by means of lipofection (Effectene Transfection Reagent: QIAGEN). Neomycin resistant cell lines were selected by culture in the medium containing G418 (1 mg/mL, LIFE TECHNOLOGIES), and then the activity against the uptake of methyl-α-D-glucopyranoside was measured by the method described below. […] CS1-5-11D cells were cultured in the presence of G418 at 200 μg/mL.
3) Measurement of the Inhibitory Activity Against the Uptake of Methyl-α-D-glucopyranoside (α-MG)
CS1-5-11D cells were seeded into a 96-well culture plate at a density of 3×10^4 cells/well and cultured for 2 days, and were used in the uptake assay. A mixture of non-labeled (Sigma) and ^14C-labeled α-MG (Amersham Pharmcia Biotec) was added to the uptake buffer (pH 7.4: containing 140 mM sodium chloride, 2 mM potassium chloride, 1 mM calcium chloride, 1 mM magnesium chloride, 10 mM 2-[4-(2-hydroxyethyl)-1-piperazinyl]ethane sulfonic acid, and 5 mM tris(hydroxymethyl)aminomethane) at the final concentration of 1 mM. A test compound was dissolved in dimethyl sulfoxide, and then appropriately diluted with distilled water. The test compound solution was added to the uptake buffer containing 1 mM α-MG, and designated as a measurement buffer. For the control group, the measurement buffer without any test compound was prepared. For measuring the basal uptake, a basal uptake measurement buffer which contains 140 mM chorine chloride instead of sodium chloride was prepared. After removing the culture medium of CS1-5-11D cells, 180 μL of the pre-treatment buffer (the basal uptake buffer without α-MG) was added to each well and incubated at 37° C. for 10 minutes. After repeating the same treatment, the pre-treatment buffer was removed. To each well was added 75 μL of the measurement buffer or the basal uptake buffer was added and incubated at 37° C. for 1 hour. After removing the measurement buffer, cells were washed twice with 180 μL per well of the washing buffer (the basal uptake buffer containing 10 mM non-labeled α-MG). The cells were solubilized by 75 μL per well of 0.2 mol/L sodium hydroxide. The cell lysates were transferred into PicoPlates (Packard), and then added 150 μL of MicroScint-40 (Packard) and mixed. Radioactivity was measured by means of micro-scintillation counter TopCount (Packard). One hundred was set to the difference between the uptake in the control group and the basal uptake, and the uptake of methyl α-D-glucopyranoside a teach drug concentration were calculated.

Assay [2] has as its system diabetic rats. Nature of the assay: Assay for inhibitory effects on blood glucose level increase in rats (liquid meal tolerance test). The class given is in vivo, rat. Conditions: test compound 1 mg/kg orally, liquid meal 17.25 kcal/kg, mean±S.E.; for Plasma glucose concentration 0.5 h: 0.5 hour after the drug administration; for Plasma glucose concentration 1 h: 1 hour after the drug administration. Here is the method:
Assay for Inhibitory Effects on Blood Glucose Level Increase in Rats
1) Preparation of Diabetic Rat Model
Male wistar rats (Japan Charles River), aged 8 weeks old, were injected nicotinamide (230 mg/kg) intraperitoneally. Fifteen minutes after injection, they were injected streptozotocin (85 mg/kg) intravenously from tail vain under anesthesia with ether. After a week, rats were fasted overnight and then glucose tolerance test (2 g/kg) was done.
2) Liquid Meal Tolerance Test
After overnight fasted, the diabetic rats were orally administered a test compound (1 mg/kg), which was dissolved in distilled water or 0.5% aqueous carboxymethylcellulose solution, in the drug-treating group, or distilled water or 0.5% aqueous carboxymethylcellulose solution alone in a control group. Immediately after the compound administration, 17.25 kcal/kg of liquid meal (No. 038, Control diet, assorted with dextrin and maltose; Oriental Yeast Co., Ltd.) was loaded orally. The blood was collected from tail artery immediately before and after administration with the time course, and treated with heparin immediately. The blood was centrifuged, and the plasma was collected to quantify the plasma glucose concentration by glucose oxidase method. The values in the Table are presented as the mean±S.E.

As usually defined, the IC50 is the concentration at which inhibition is half-maximal. A lower IC50 goes with greater potency. With `CC(C)c1[nH]nc(O[C@@H]2O[C@H](CO)[C@@H](O)[C@H](O)[C@H]2O)c1Cc1ccc(OCCCN)cc1` [Example 6, 4-{[4-(3-Aminopropoxy)phenyl]methyl}-3-(β-D-glucopyranosyloxy)-5-isopropyl-1H-pyrazole], the IC50 in assay [1] was 304 nM. Besides, in assay [2], the “Plasma glucose concentration 0.5 h” value worked out at 126 ± 12 mg/dL and the “Plasma glucose concentration 1 h” value was determined as 140 ± 13 mg/dL.
The matching figures for `CC(C)c1[nH]nc(O[C@@H]2O[C@H](CO)[C@@H](O)[C@H](O)[C@H]2O)c1Cc1ccc(OCCCNS(C)(=O)=O)cc1` [Example 10, 3-(β-D-Glucopyranosyloxy)-5-isopropyl-4-({4-[3-(methanesulfonylamino)propoxy]phenyl}methyl)-1H-pyrazole]: 169 nM, 145 ± 5 mg/dL and 164 ± 6 mg/dL.
On the same counts, the results for `CC(C)c1[nH]nc(O[C@@H]2O[C@H](CO)[C@@H](O)[C@H](O)[C@H]2O)c1Cc1ccc(OCCCNC(=O)CN)cc1` [Example 13, 4-({4-[3-(2-Aminoacetylamino)propoxy]phenyl}methyl)-3-(β-D-glucopyranosyloxy)-5-isopropyl-1H-pyrazole] are 267 nM, 127 ± 7 mg/dL and 135 ± 7 mg/dL.
Take `Cc1cc(OCCNCC(N)=O)ccc1Cc1c(O[C@@H]2O[C@H](CO)[C@@H](O)[C@H](O)[C@H]2O)n[nH]c1C(C)C` [Example 49, 4-({4-[2-(Carbamoylmethylamino)ethoxy]-2-methylphenyl}methyl)-3-(1-D-glucopyranosyloxy)-5-isopropyl-1H-pyrazole]: the IC50 in assay [1] amounted to 148 nM.
The same measure, in the same setting: as for `Cc1cc(OCCNCCC(N)=O)ccc1Cc1c(O[C@@H]2O[C@H](CO)[C@@H](O)[C@H](O)[C@H]2O)n[nH]c1C(C)C` [Example 50], the figure is 159 nM; as for `Cc1cc(OCCCNC(C)(C)C(N)=O)ccc1Cc1c(O[C@@H]2O[C@H](CO)[C@@H](O)[C@H](O)[C@H]2O)n[nH]c1C(C)C` [Example 51, 4-[(4-{3-[1-Carbamoyl-1-(methyl)ethylamino]propoxy}-2-methylphenyl)methyl]-3-(β-D-glucopyranosyloxy)-5-isopropyl-1H-pyrazole], 22 nM; as for `Cc1cc(OCCCNC(C)(C)CO)ccc1Cc1c(O[C@@H]2O[C@H](CO)[C@@H](O)[C@H](O)[C@H]2O)n[nH]c1C(C)C` [Example 57, 3-(β-D-Glucopyranosyloxy)-4-[(4-(3-[2-hydroxy-1,1-di(methyl)ethylamino]propoxy)-2-methylphenyl)methyl]-5-isopropyl-1H-pyrazole], 43 nM.
`Cc1cc(OCCCNCCO)ccc1Cc1c(O[C@@H]2O[C@H](CO)[C@@H](O)[C@H](O)[C@H]2O)n[nH]c1C(C)C` [Example 58, 3-(β-D-Glucopyranosyloxy)-4-({4-[3-(2-hydroxyethylamino)propoxy]-2-methylphenyl}methyl)-5-isopropyl-1H-pyrazole] returned an IC50 in assay [1] of 100 nM.
Same read-out and setting: to `CC(C)c1[nH]nc(O[C@@H]2O[C@H](CO)[C@@H](O)[C@H](O)[C@H]2O)c1Cc1ccc(OCCCNC(C)(C)CO)cc1` [Example 61, 3-(β-D-Glucopyranosyloxy)-4-[(4-(3-[2-hydroxy-1,1-di(methyl)ethylamino]propoxy)phenyl)methyl]-5-isopropyl-1H-pyrazole] belongs 199 nM.
On the same count and under the same terms, to `Cc1cc(OCCNC(CO)CO)ccc1Cc1c(O[C@@H]2O[C@H](CO)[C@@H](O)[C@H](O)[C@H]2O)n[nH]c1C(C)C` [Example 62, 3-(β-D-Glucopyranosyloxy)-4-[(4-{2-[2-hydroxy-1-(hydroxymethyl)ethylamino]ethoxy}-2-methylphenyl)methyl]-5-isopropyl-1H-pyrazole] belongs 138 nM.
Same read-out and setting: to `Cc1cc(OCCNCCO)ccc1Cc1c(O[C@@H]2O[C@H](CO)[C@@H](O)[C@H](O)[C@H]2O)n[nH]c1C(C)C` [Example 63, 3-(β-D-Glucopyranosyloxy)-4-({4-[2-(2-hydroxyethylamino)ethoxy]-2-methylphenyl}methyl)-5-isopropyl-1H-pyrazole] belongs 322 nM.

The values above are taken from patent US8324176B2, “Pyrazole derivatives, medicinal composition containing the same, medicinal use thereof, and intermediate for production thereof” (Kissei Pharmaceutical Co., Ltd., priority 2002, dated 2012).
